In paper PMC11111895, “Identification of a dCache-type chemoreceptor in Campylobacter jejuni that specifically mediates chemotaxis towards methyl pyruvate” (Frontiers in Microbiology, 2024):

How the values were obtained:
[1] = test system: Tlp11[1-343]-PhoQ[202-486] (Tlp343PhoQ202); test: Hybrid kinase Tlp11-PhoQ GFP reporter assay; type: cell-based, E. coli MG1655/ΔPhoQ; settings: stimulation for 40 min
Description: (§1) The reporter plasmid pUA66-PmgtLA-GFP and the plasmid encoding the hybrid kinase were together transformed into E. coli MG1655/ΔPhoQ strain. E. coli cells containing the reporter and Tlp11-PhoQ chimera were incubated in Medium A, at 37°C, with shaking (200 rpm), until an OD600 of 0.4 was attained, following which different concentrations of methyl pyruvate were added to the medium and the cells were incubated for 40 min. The fluorescence intensity of the cells was monitored using a plate reader (Varioskan™ LUX, Life Technologies) equipped with a 488 nm laser and a 528/12 bandpass filter. The acquired data were analyzed using Prism 8.0.2.
(§2) To construct the signal input module, we fused the Tlp11-LBD with the PhoQ cytoplasmic region, to design the Tlp11-PhoQ hybrid kinases (Supplementary Figure S6), Tlp11[1-337]-PhoQ[200-486] (Tlp337PhoQ200), Tlp11[1-339]-PhoQ[200-486] (Tlp339PhoQ200), Tlp11[1-339]-PhoQ[201-486] (Tlp339PhoQ201), Tlp11[1-340]-PhoQ[202-486] (Tlp340PhoQ202), Tlp11[1-340]-PhoQ[200-486] (Tlp340PhoQ200), Tlp11[1-341]-PhoQ[202-486] (Tlp341PhoQ202), Tlp11[1-342]-PhoQ[[…]] (Tlp342PhoQ202), Tlp11[1-343]-PhoQ[202-486] (Tlp343PhoQ202), which connected Tlp11 and PhoQ in TM2 (Supplementary Figure S7C). The activity of each chimera in sensing methyl pyruvate was determined by measuring the fluorescence intensity of GFP in the E. coli MG1655/ΔPhoQ strain.

[2] = test system: Tlp11-LBD (residues 32–332 of Tlp11); test: Thermal shift assay (TSA) of Tlp11-LBD; type: binding, C. jejuni ATCC 33560
Description: TSA measurements were performed using a quantitative Real-Time PCR System (LightCycler® 480; Roche, United States), to monitor the Tm of the LBD proteins. The compounds listed in Supplementary Table S2 were used as ligand candidates for the high-throughput screening. Each 25 μL mixture for the standard assay contained 20 μM protein, 1–2 mM compound in Buffer C, and SYPRO™ Orange dye (Life Technologies, United States), at 5× concentration. Samples were heated from 26°C to 85°C, with a ramp rate of 1.2°C min^−1, to denature the protein. Protein unfolding curves were recorded by detecting the changes in fluorescence. The Tm values were calculated using first-derivative values (dF/dT) from the raw data.
Fluorescence-based TSA, which has been widely used to discover direct-binding molecules of proteins with high efficiency ([Fernández et al., 2018]), was used to identify the ligand specificity of the C. jejuni chemoreceptor Tlp11. The Tlp11-LBD protein (residues 32–332 of Tlp11) from the strain C. jejuni ATCC 33560 was expressed and purified from E. coli. Hydrophobic reactive dyes were added to the purified protein sample, and the protein was heated to record the change in fluorescence intensity as the temperature increased during the denaturation process of the protein (see Materials and Methods). The melting temperature (Tm) of the target protein was obtained and represented as the midpoint of the protein unfolding transition. Most ligands stabilize the protein during binding, leading to an increase in Tm. Using TSA, we screened a compound library composed of 131 molecules (Supplementary Table S2) that commonly act as microbial carbon and nitrogen sources or metabolites in the human GI tract. Among the compounds in the library, methyl pyruvate elicited the most significant increase in Tm. In the absence of the ligand, the Tm of Tlp11-LBD was 38.3°C, while in the presence of 1 mM methyl pyruvate, the Tm increased by 1.1°C compared to buffer (Figure 1A).

[3] = test system: full-length PhoQ or an empty vector; test: GFP reporter assay, control cells; type: cell-based, E. coli MG1655/ΔPhoQ; settings: 40 min
Description: as §1, §2

[4] = test system: pin-head Tar (Tar without LBD) or WT Tar; test: Microfluidic chemotaxis of E. coli expressing pin-head Tar or WT Tar; type: cell-based, E. coli VS188; settings: microfluidic device, 50 min
Tlp11-LBD T320A = test: MST of Tlp11-LBD mutant T320A; type: binding, C. jejuni ATCC 33560; settings: max ligand 2.5 mM
Description: (§3) The His-tag dye (MO-L018 RED-tris-NTA, NanoTemper, Germany) was adjusted to a final concentration of 25 nM and used to label the purified protein with a His-tag. The compound was diluted to a series of concentrations in phosphate-buffered saline ([Duan et al., 2023]) with 0.05% Tween 20 (PBS-T) buffer and mixed in a ratio of 1:1 with protein. The mixtures were loaded into capillaries (Monolith™ Series capillaries, NanoTemper) by means of capillary action. Thermophoresis was measured using a Monolith™ NT.115 (NanoTemper) instrument, with 40% excitation and 40% MST power configuration. The time-traces of changes in fluorescence, which reflected the thermophoretic movement of labeled protein affected by different concentrations of compound were recorded, and the dose–response curves were fitted with the ‘temperature jump and thermophoresis’ mode. Data analysis was performed using MO. Affinity Analysis version 2.3 (NanoTemper) and Prism version 8.0.2 (GraphPad Software, United States).
(§4) In order to confirm the contribution of L264, N268, I276, Y291, V318, and T320 to the binding to methyl pyruvate, we generated Tlp11-LBD proteins with an alanine point mutation at individual residues, to obtain the mutant proteins L264A, N268A, I276A, Y291A, V318A, and T320A, and then analyzed the binding affinities of methyl pyruvate to these mutants using MST. […]

[5] = test system: C. jejuni 11168ΩTlp11/ΔCheY; type: cell-based, Campylobacter jejuni; settings: 11168ΩTlp11/ΔCheY; microfluidic device
[6] = test system: C. jejuni WT NCTC 11168 cells; type: cell-based, Campylobacter jejuni; settings: WT NCTC 11168 cells; microfluidic device, 30 min
Tlp11-LBD L264A = test: MST of Tlp11-LBD mutant L264A; type: binding, C. jejuni ATCC 33560; settings: max ligand 2.5 mM
Description: as §3, §4

[7] = test system: C. jejuni NCTC 11168ΩTlp11 cells; type: cell-based, Campylobacter jejuni; settings: 11168ΩTlp11 cells; microfluidic device, 30 min

Compound: COC(=O)C(C)=O [methyl pyruvate, Methyl pyruvate]
- response (GFP fluorescence intensity) of Tlp343PhoQ202 [1]: significant concentration-dependence
- Tm increase of Tlp11-LBD compared to buffer (ΔTm) ([2]; 1 mM compound, 20 μM protein): 1.1 °C
- ΔTm of Tlp11-LBD ([2]; 3 mM compound): 1.3 °C
- ΔTm of Tlp11-LBD ([2]; 10 mM compound): 2.8 °C
- response (GFP fluorescence intensity) of control cells [3]: almost no response
- chemotactic response of E. coli expressing pin-head Tar or WT Tar as the sole chemoreceptor [4]: no response or a much weaker response
- Kd (binding curve fit) (Tlp11-LBD T320A): unable to obtain fitted Kd values
- chemotactic response [5]: no chemotaxis
- chemotactic response [6]: failed to show any chemotaxis
- Kd (binding curve fit) (Tlp11-LBD L264A): unable to obtain fitted Kd values
- chemotactic response [7]: robust attractant response
